The values that follow come from US11851428B2, “Activator of TREK (TWIK RElated K+channels) channels” (ONO PHARMACEUTICAL CO., LTD., priority 2016, dated 2023).

Where two headings read alike, the source gives them in different places.

This assay deals with T1, human TREK-1 (Homo sapiens, UniProt O95069).
T1 construct: expressed in transfected cells
T1 sequence (O95069 1-426): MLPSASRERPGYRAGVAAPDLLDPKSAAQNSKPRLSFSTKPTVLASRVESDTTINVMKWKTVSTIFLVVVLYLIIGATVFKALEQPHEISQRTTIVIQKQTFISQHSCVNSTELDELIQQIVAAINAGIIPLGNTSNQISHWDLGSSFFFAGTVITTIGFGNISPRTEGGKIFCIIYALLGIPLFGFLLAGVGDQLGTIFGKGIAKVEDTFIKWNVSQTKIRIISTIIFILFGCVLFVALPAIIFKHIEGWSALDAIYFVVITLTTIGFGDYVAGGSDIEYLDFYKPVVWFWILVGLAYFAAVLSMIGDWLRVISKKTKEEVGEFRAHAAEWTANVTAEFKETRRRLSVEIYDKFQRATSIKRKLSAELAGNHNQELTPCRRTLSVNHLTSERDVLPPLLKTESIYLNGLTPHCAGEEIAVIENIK
As to the kind of experiment: thallium flux assay (TREK1 activation normalized to BL-1249). In kind it is cell-based. The protocol:
The term “thallium flux assay” herein refers to a fluorescence-based assay used to monitor the activity of TREK channels. Thallium is a congener of potassium that readily fluxes through the pore of TREK channels. Thallium flux is measured using a commercially available, thallium-sensitive fluorescent dye called Thallos. The detail method is described below.
Method 1 (Thallium Flux Assay);
CHO-K1 cells stably expressing human TREK-1 or HEK293 cells stably expressing human TREK-2 are plated in 384-well plates, cultured overnight, loaded with Thallos dye the following day, treated with test compounds for 10 min, and then treated with thallium stimulus buffer to initiate thallium flux. The change in fluorescence at 25 seconds after thallium addition is normalized to baseline fluorescence (fluorescent intensity at 25 sec after Tl^+ addition)/(average of fluorescent intensity at pre-read).

The mark [1] stands for this setting: concentration of Example compound 30 μM, normalized to 10 μM BL-1249, CHO-K1 cells stably expressing human TREK-1, read-out: TREK1 activation RBL-1249 (%).
[2] abbreviates: concentration of Example compound 10 μM, normalized to 10 μM BL-1249, CHO-K1 cells stably expressing human TREK-1, read-out: TREK1 activation RBL-1249 (%).
Where [3] appears, read: concentration of Example compound 10 μM, normalized to 10 μM BL-1249, CHO-K1 cells stably expressing human TREK-1.
[4] abbreviates: CHO-K1, read-out: TREK1 activation RBL-1249 (%).

On to `O=C(Cc1ccc(OC(F)(F)F)cc1F)Nc1ccc2ncnn2c1` [Example 6, 2-[2-Fluoro-4-(trifluoromethoxy)phenyl]-N-([1,2,4]triazolo[1,5-a]pyridin-6-yl)acetamide], for which the activation at 30 µM under setting [1] amounted to 19%.
As for `O=C(NCc1ccc(OC(F)(F)F)cc1F)c1cc2ncccn2n1` [Example 1-50, N-[2-fluoro-4-(trifluoromethoxy)benzyl]pyrazolo[1,5-a]pyrimidine-2-carboxamide], the activation at 10 µM under setting [2] turned out to be 66%.
With `O=C(NCc1ccc(Br)cc1Cl)c1ccc2ncnn2c1` [Example 1-28], the “TREK1 activation RBL-1249 (%)” value under setting [3] is 99%.
Regarding `O=C(NCc1ccc(C(F)(F)F)cc1Cl)c1cc2ncccn2n1` [Example 1-47, N-(2-chloro-4-(trifluoromethyl)benzyl]pyrazolo[1,5-a]pyrimidine-2-carboxamide], the activation at 10 µM under setting [2] amounted to 63%.
In the case of `O=C(NCc1ccc(OC(F)(F)F)cc1)c1nc2ncccn2n1` [Example 1-44, N-[4-(trifluoromethoxy)benzyl][1,2,4]triazolo[1,5-a]pyrimidine-2-carboxamide], under setting [1], the activation at 30 µM stood at 25%.
`COc1cc(OC(F)(F)F)ccc1CNC(=O)c1ccc(-c2nnn[nH]2)cc1` [Example 5, N-[2-Methoxy-4-(trifluoromethoxy)benzyl]-4-(1H-tetrazol-5-yl)benzamide]: the activation at 30 µM under setting [1] is 79%.
Consider `O=C(NCc1ccc(C(F)(F)F)cc1Cl)c1ccn2cnnc2c1` [Example 1-31, N-[2-chloro-4-(trifluoromethyl)benzyl][1,2,4]triazolo[4,3-a]pyridine-7-carboxamide], for which the activation at 10 µM under setting [2] turned out to be 90%.
In the case of `O=C(NCc1ccc(C(F)(F)F)cc1Cl)c1cccc2ncnn12` [Example 1-27, N-[2-chloro-4-(trifluoromethyl)benzyl][1,2,4]triazolo[1,5-a]pyridine-5-carboxamide], under setting [2], the activation at 10 µM is 91%.
As for `O=C(NCc1ccc(OC(F)(F)F)cc1Cl)c1ccn2nnnc2c1` [Example 9-17], the “TREK1 activation RBL-1249 (%)” value under setting [3] was found to be 78%.
Turning to `O=C(NCc1ccc(SC(F)(F)F)cc1)c1ccc(-n2cncn2)cc1` [Example 2-18, 4-(1H-1,2,4-triazol-1-yl)-N-{4-[(trifluoromethyl)thio]benzyl}benzamide], the activation at 10 µM under setting [2] came to 39%.
Regarding `O=C(NCc1ccc(Cl)cc1Cl)c1ccc2[nH]ncc2c1` [Example 1-6, N-(2,4-dichlorobenzyl)-1H-indazole-5-carboxamide], the activation at 10 µM under setting [2] was found to be 26%.
As for `O=C(NCc1ccc(OC(F)(F)F)cc1F)c1ccn2cnnc2c1` [Example 1-29, N-[2-fluoro-4-(trifluoromethoxy)benzyl][1,2,4]triazolo[4,3-a]pyridine-7-carboxamide], the activation at 10 µM under setting [2] was 80%.
As to `O=C(NCc1ccc(C(F)(F)F)cc1Cl)c1ccc(-c2nc[nH]n2)cc1` [Example 2-26, N-[2-chloro-4-(trifluoromethyl)benzyl]-4-(1H-1,2,4-triazol-3-yl)benzamide], under setting [2], the activation at 10 µM is 76%.
Turning to `O=C(NCc1ccc(OC(F)(F)F)cc1)c1ccc(-n2cncn2)cc1` [4-(1H-1,2,4-triazol-1-yl)-N-[4-(trifluoromethoxy)benzyl]benzamide], under setting [2], the activation at 10 µM worked out at 63%.
On to `O=C(NCc1ccc(OC(F)(F)F)cc1)c1cc2cccnc2s1` [Example 1-33, N-(4-(trifluoromethoxy)benzyl]thieno[2,3-b]pyridine-2-carboxamide], for which the activation at 10 µM under setting [2] stood at 26%.
With `O=C(NCc1ccc(OC(F)(F)F)cc1F)c1ccc(F)nc1` [Example 1-13, 6-fluoro-N-[2-fluoro-4-(trifluoromethoxy)benzyl]nicotinamide], the activation at 10 µM under setting [2] came out at 65%.
Turning to `COc1cc(OC(F)(F)F)ccc1CNC(=O)c1ccc(-c2nc[nH]n2)cc1` [Example 2-25, N-[2-methoxy-4-(trifluoromethoxy)benzyl]-4-(1H-1,2,4-triazol-3-yl)benzamide], under setting [2], the activation at 10 µM was 48%.
Take `Cc1cc(OC(F)(F)F)ccc1CNC(=O)c1ccc(-c2ncn[nH]2)cc1` [Example 2-34, N-[2-methyl-4-(trifluoromethoxy)benzyl]-4-(1H-1,2,4-triazol-5-yl)benzamide]: the activation at 10 µM under setting [2] worked out at 80%.
On the same count and under the same terms, the figure for `Cc1cc(OC(F)(F)F)ccc1CNC(=O)c1ccc2ncnn2c1` [Example 1, N-[2-Methyl-4-(trifluoromethoxy)benzyl]-[1,2,4]triazolo[1,5-a]pyridine-6-carboxamide] is 88%.
With `O=C(NCc1ccc(OC(F)(F)F)cc1)c1ccc2nccnc2c1` [Example 1-36, N-[4-(trifluoromethoxy)benzyl]-6-quinoxalinecarboxamide], the activation at 10 µM under setting [2] is 26%.
Take `O=C(NCc1ccc(Cl)cc1Cl)c1ccc2ncnn2c1` [Example 1-5, N-(2,4-dichlorobenzyl)[1,2,4]triazolo[1,5-a]pyridine-6-carboxamide]: the activation at 10 µM under setting [2] came out at 44%.
`O=C(NCc1ccc(OC(F)(F)F)cc1Cl)c1ccc2ncnn2c1` [Example 9-2, N-[[2-chloro-4-(trifluoromethoxy)phenyl]methyl]-[1,2,4]triazolo[1,5-a]pyridine-6-carboxamide]: the activation at 10 µM under setting [4] is 106%.
On to `O=C(NCc1ccc(OC(F)(F)F)cc1)c1ccn2ncnc2c1` [Example 1-21, N-[4-(trifluoromethoxy)benzyl][1,2,4]triazolo[1,5-a]pyridine-7-carboxamide], for which the activation at 30 µM under setting [1] turned out to be 73%.
With `O=C(NCc1ccc(OC(F)(F)F)cc1)c1ccc(-c2nccs2)cc1` [Example 2-9, 4-(1,3-thiazol-2-yl)-N-+4-(trifluoromethoxy)benzyl+benzamide], the “TREK1 activation RBL-1249 (%)” value under setting [3] came to 25%.
Take `O=C(NCc1ccc(OC(F)(F)F)cc1F)c1ccnc(F)c1` [Example 1-12, 2-fluoro-N-[2-fluoro-4-(trifluoromethoxy)benzyl]isonicotinamide]: the activation at 30 µM under setting [1] is 63%.
For `CS(=O)(=O)Nc1ccc(C(=O)NCc2ccc(Cl)cc2Cl)cc1` [N-(2,4-dichlorobenzyl)-4-[(methylsulfonyl)amino]benzamide], the activation at 30 µM under setting [4] is 54%.
On to `O=C(NCc1ccc(Cl)cc1Cl)c1ccc(CN2CCOCC2)cc1` [Example 7, N-(2,4-Dichlorobenzyl)-4-(4-morpholinomethyl)benzamide], for which the activation at 30 µM under setting [1] is 38%.
In the case of `O=C(NCc1ccc(OC(F)(F)F)cc1Cl)c1ccc2[nH]nnc2c1` [Example 9-7, N-[[2-chloro-4-(trifluoromethoxy)phenyl]methyl]-1H-benzotriazole-5-carboxamide], the activation at 10 µM under setting [2] came out at 125%.
Turning to `N#Cc1cc(OC(F)(F)F)ccc1CNC(=O)c1ccc2ncnn2c1` [Example 1-89, N-[[2-cyano-4-(trifluoromethoxy)phenyl]methyl]-[1,2,4]triazolo[1,5-a]pyridine-6-carboxamide], under setting [2], the activation at 10 µM is 70%.
Consider `Nc1c(C(=O)NCc2ccc(OC(F)(F)F)cc2Cl)cnc2ccnn12` [Example 9-14, 7-amino-N-[2-chloro-4-(trifluoromethoxy)benzyl]pyrazolo[1,5-a]pyrimidine-6-carboxamide], for which the activation at 10 µM under setting [2] came to 79%.
On to `O=C(NCc1ccc(OC(F)(F)F)cc1)c1cn[nH]c(=O)c1` [Example 1-42, 6-oxo-N-[4-(trifluoromethoxy)benzyl]-1,6-dihydro-4-pyridazinecarboxamide], for which, under setting [1], the activation at 30 µM is 41%.
As to `O=C(NCc1ccc(OC(F)(F)F)cc1)c1ccn2cnnc2c1` [Example 1-3, N-[4-(trifluoromethoxy)benzyl][1,2,4]triazolo(4,3-a]pyridine-7-carboxamide], the activation at 10 µM under setting [2] was 28%.
